# Read-outs that look alike come from different tables or passages of the source.
# Assays:
# [1] = rat, in vivo, ip
# Description: At the times indicated in the table, the animals were anesthetized, exsanguinated and the peritoneal cavities lavaged three time with 20 ml phosphate-buffered saline. The lavage fluid was pooled and centrifuged at low speed. "Peritoneal fluid" refers to fluid lavaged and pooled from the peritoneal cavity and contains small sized vesicles. "Peritoneal pellet" refers to the pelleted portion of the lavaged peritoneal fluid, and contains cellular matter (predominately peritoneal macrophage) and large vesicles. The remaining tissues were collected, washed, blotted, weighed and distributed into tubes for gamma counting.
# [2] = format: physicochemical
# Description: 3.9 ml of the Na-IBF solution is injected into each flask containing lipid film. The flasks are vortex-stirred for 40 to 60 minutes in a 65° C. water bath under nitrogen. (The nitrogen purge is first passed through a 0.22 micron filter.) To the contents of each flask is added sterile, pyrogen-free phosphate buffered saline, and the flasks are centrifuged for 6 to 10 minutes at 15,000 rpm. This washing procedure is repeated for a total of five times to remove unencapsulated Na-IBF. The contents of the flasks are then combined and PBS (5 mM PO4^3- in 0.15 N NaCl) is added to a total of 32 ml. The liposome suspension thus produced comprises ILDVs of about 1 micron or larger in size suspended in the PBS.
Compound,Clearance after intraperitoneal injection [1],Feces ([1]; 1 h),TOTAL ([1]; 1 h),Urine ([1]; 1 h),Feces ([1]; 2 h),TOTAL ([1]; 2 h),Urine ([1]; 2 h),Feces ([1]; 6 h),TOTAL ([1]; 6 h),Urine ([1]; 6 h),Feces ([1]; 24 h),TOTAL ([1]; 24 h),Urine ([1]; 24 h),Storage stability of liposome suspension [2]
"O=C([O-])CN(CCN(CC(=O)[O-])CC(=O)[O-])CC(=O)[O-].[111In+3] [^111 In-EDTA, Indium-III chelated to ethylenediamine tetracetic acid]",rapid clearance from the peritoneal cavity and from the whole body,4.6 % Inj. Dose,32.58 % Inj. Dose,19 % Inj. Dose,.02 % Inj. Dose,76.73 % Inj. Dose,73 % Inj. Dose,7.6 % Inj. Dose,71.27 % Inj. Dose,60.2 % Inj. Dose,16.83 % Inj. Dose,33.91 % Inj. Dose,14.05 % Inj. Dose,–
Sodium Ibuprofenate,–,–,–,–,–,–,–,–,–,–,–,–,–,storage-stable for a period of several months

# From patent US4877619A, “Liposomal vesicles for intraperitoneal administration of therapeutic agents” (priority 1987, dated 1989)
